# Laboratory results taken from patent publication US9409914B2, “Triazolo[4,5-d]pyrimidine derivatives” (Merck Patent GmbH, priority 2012, dated 2016).
# Key:
# GCN2 [1] = target: T1, GCN2 (Homo sapiens, UniProt Q9P2K8); assay: GCN2 enzyme assay (TR-FRET Lanthascreen, phosphorylation of GFP-eIF2alpha); format: biochemical; conditions: 10 μM ATP, 80 nM GFP-eIF2alpha, 30 nM GCN2, room temperature
# Method in brief: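 Two-step TR-FRET (Lanthascreen) format: GCN2 incubated at room temperature with 10 μM ATP and 80 nM GFP-labelled eIF2alpha, then stopped with EDTA. Phospho-eIF2alpha detected by Tb-labelled antibody, excitation 340 nm; activity taken from the 520/495 nm emission ratio.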
# Target sequence in this assay (Q9P2K8 whole entry, species assumed): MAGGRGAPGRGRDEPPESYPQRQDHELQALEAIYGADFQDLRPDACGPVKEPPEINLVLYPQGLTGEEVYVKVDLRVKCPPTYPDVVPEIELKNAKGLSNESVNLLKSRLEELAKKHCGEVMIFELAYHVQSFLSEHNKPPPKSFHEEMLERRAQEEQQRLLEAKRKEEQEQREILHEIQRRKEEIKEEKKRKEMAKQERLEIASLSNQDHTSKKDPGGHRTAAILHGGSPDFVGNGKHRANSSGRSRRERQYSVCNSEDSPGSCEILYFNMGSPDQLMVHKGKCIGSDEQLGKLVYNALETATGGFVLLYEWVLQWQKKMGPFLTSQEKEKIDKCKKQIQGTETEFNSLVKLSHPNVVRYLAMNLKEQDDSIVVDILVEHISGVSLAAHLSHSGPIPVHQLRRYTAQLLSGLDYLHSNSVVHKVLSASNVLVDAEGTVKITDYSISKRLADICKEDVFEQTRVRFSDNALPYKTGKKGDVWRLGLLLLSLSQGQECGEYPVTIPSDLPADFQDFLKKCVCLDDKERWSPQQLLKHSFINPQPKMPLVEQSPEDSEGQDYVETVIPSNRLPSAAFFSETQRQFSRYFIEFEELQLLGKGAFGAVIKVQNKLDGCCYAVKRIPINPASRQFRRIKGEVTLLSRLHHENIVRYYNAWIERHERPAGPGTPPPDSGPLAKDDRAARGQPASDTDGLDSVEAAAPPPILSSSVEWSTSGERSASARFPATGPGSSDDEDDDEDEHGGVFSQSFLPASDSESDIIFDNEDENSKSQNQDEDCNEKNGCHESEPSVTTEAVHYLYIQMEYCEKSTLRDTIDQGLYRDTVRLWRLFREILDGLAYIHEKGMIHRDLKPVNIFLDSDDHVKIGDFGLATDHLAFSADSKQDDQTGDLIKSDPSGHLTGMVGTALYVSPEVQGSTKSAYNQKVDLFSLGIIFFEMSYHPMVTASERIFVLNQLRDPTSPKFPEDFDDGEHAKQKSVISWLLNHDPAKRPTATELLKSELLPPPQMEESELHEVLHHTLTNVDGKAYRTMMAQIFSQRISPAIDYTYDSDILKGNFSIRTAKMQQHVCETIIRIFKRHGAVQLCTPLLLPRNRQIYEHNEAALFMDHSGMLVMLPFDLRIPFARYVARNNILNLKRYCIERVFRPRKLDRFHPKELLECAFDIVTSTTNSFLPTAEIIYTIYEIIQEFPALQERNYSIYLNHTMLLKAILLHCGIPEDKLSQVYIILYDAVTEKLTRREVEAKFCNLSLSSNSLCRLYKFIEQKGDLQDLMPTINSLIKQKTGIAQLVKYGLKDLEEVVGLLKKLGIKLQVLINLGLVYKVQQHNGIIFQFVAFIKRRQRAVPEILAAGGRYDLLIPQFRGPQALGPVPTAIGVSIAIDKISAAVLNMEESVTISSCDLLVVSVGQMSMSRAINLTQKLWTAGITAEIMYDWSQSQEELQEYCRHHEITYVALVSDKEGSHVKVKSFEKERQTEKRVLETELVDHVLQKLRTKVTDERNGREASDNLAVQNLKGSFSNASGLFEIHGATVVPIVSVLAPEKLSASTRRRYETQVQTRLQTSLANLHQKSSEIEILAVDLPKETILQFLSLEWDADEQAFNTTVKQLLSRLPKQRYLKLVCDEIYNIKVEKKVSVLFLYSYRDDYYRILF
# GCN2 [2] = target: T1, GCN2; assay: Cellular assay for GCN2 activity (phospho-eIF2alpha immunocytochemistry, tryptophanol-stimulated U2OS cells); format: cell-based; design: endogenous in cells; host or cells: U2OS; conditions: 2 hours compound, then 600 μM tryptophanol 30 minutes, anti-phospho-eIF2alpha, read-out: IC50 GCN2 (cell assay)
# Description: Cellular Assay for the Determination of Compound Activities
# Human U2OS cells (2000 cells/well) are seeded into 384-well plates and incubated for 20 hours.
# The next day, the cells are treated with the test compounds and incubated for 2 hours. Then, tryptophanol, at a final concentration of 600 μM, is added to the cells and those are incubated for 30 minutes.
# The analysis of cellular GCN2 activities is done by immunocytochemistry. Briefly, cells are fixated on the well surfaces by formaldehyde and permeabilised with Triton X-100. The primary antibody (anti-phospho-eIF2alpha (Ser51, Cell Signalling Technology, #3398) is incubated on the treated cells for 20 hours, followed by a 60 minutes incubation of the secondary antibody (anti-rabbit-IgG-Alexa 488; Molecular Probes #11008). The analysis and quantification of phosphorylated GCN2 is done by scanning the plates in the Acumen Explorer system (TTPLabtech). The obtained data are normalised against the untreated control wells (DMSO only) and expressed as % effect values. The determination of IC50 values is done by using the Graph Pad Prism software.
# Target sequence in this assay (Q9P2K8 whole entry): as the sequence (Q9P2K8 whole entry, species assumed) above
IC50 (GCN2 [1]),IC50 (GCN2 [2]),SMILES
< 300 nM,300 to 3000 nM,"COCCOc1ccc(-n2nnc3cnc(Nc4cnn(C5CCN(C)CC5)c4)nc32)cc1 [Compound A27, 3-[4-(2-methoxyethoxy)phenyl]-N-[1-(1-methyl-4-piperidyl)pyrazol-4-yl]triazolo[4,5-d]pyrimidin-5-amine]"
< 300 nM,300 to 3000 nM,"CCOc1ccc(-n2nnc3cnc(Nc4cnn(C5CCN(C)CC5)c4)nc32)cc1 [Compound A28, 3-(4-ethoxyphenyl)-N-[1-(1-methyl-4-piperidyl)pyrazol-4-yl]triazolo[4,5-d]pyrimidin-5-amine]"
< 300 nM,300 to 3000 nM,"COc1cc(-n2nnc3cnc(Nc4cnn(C5CCN(C)CC5)c4)nc32)ccn1 [Compound A30, 3-(2-methoxy-4-pyridyl)-N-[1-(1-methyl-4-piperidyl)pyrazol-4-yl]triazolo[4,5-d]pyrimidin-5-amine]"
< 300 nM,300 to 3000 nM,"CN1CCC(n2cc(Nc3ncc4nnn(-c5ccc(Cl)c(F)c5)c4n3)cn2)CC1 [Compound A44, [3-(4-chloro-3-fluoro-phenyl)-3H-[1,2,3]triazolo[4,5-d]pyrimidin-5-yl]-[1-(1-methyl-piperidin-4-yl)-1H-pyrazol-4-yl]-amine]"
< 300 nM,300 to 3000 nM,"CN1CCC(n2cc(Nc3ncc4nnn(-c5ccc(N6CCCC6=O)cc5)c4n3)cn2)CC1 [Compound A48, 1-(4-{5-[1-(1-methyl-piperidin-4-yl)-1H-pyrazol-4-ylamino]-[1,2,3]triazolo[4,5-d]pyrimidin-3-yl}-phenyl)-pyrrolidin-2-one]"
< 300 nM,300 to 3000 nM,"COCCOc1ccc(-n2nnc3cnc(Nc4cnn(CCn5cccn5)c4)nc32)cc1 [Compound A65, {3-[4-(2-methoxy-ethoxy)-phenyl]-3H-[1,2,3]trtazolo[4,5-d]pyrimidin-5-yl}-[1-(2-pyrazol-1-yl-ethyl)-1H-pyrazol-4-yl]-amine]"
< 300 nM,3000 to 50000 nM,"CCn1cc(Nc2ncc3nnn(-c4ccc(C(N)=O)cc4)c3n2)cn1 [Compound A70, 4-[5-(1-ethyl-1H-pyrazol-4-ylamino)-[1,2,3]triazolo[4,5-d]pyrimidin-3-yl]-benzamide]"
< 300 nM,300 to 3000 nM,"CCn1cc(Nc2ncc3nnn(-c4ccc5ncccc5c4)c3n2)cn1 [Compound A71, (1-ethyl-1H-pyrazol-4-yl)-(3-quinolin-6-yl-3H-[1,2,3]triazolo[4,5-d]pyrimidin-5-yl)-amine]"
< 300 nM,3000 to 50000 nM,"COCCN1CCC(n2cc(Nc3ncc4nnn(-c5ccnc(OC)c5)c4n3)cn2)CC1 [Compound A76, {1-[1-(2-methoxy-ethyl)-piperidin-4-yl]-1H-pyrazol-4-yl}-[3-(2-methoxy-pyridin-4-yl)-3H-[1,2,3]triazolo[4,5-d]pyrimidin-5-yl]-amine]"
300 to 3000 nM,< 300 nM,"NC(=O)c1ccc(-n2nnc3cnc(Nc4cnn(C5CCOCC5)c4)nc32)cc1 [Compound A80, 4-{5-[1-(tetrahydro-pyran-4-yl)-1H-pyrazol-4-ylamino]-[1,2,3]triazolo[4,5-d]pyrimidin-3-yl}-benzamide]"
< 300 nM,300 to 3000 nM,"Fc1cc(-n2nnc3cnc(Nc4cnn(C5CCOCC5)c4)nc32)ccc1Cl [Compound A81, [3-(4-chloro-3-fluoro-phenyl)-3H-[1,2,3]triazolo[4,5-d]pyrimidin-5-yl]-[1-(tetrahydro-pyran-4-yl)-1H-pyrazol-4-yl]-amine]"

# The remaining lines, values behind:
SMILES,IC50 (GCN2 [1]),IC50 (GCN2 [2])
"CCOc1ccc(-n2nnc3cnc(Nc4cnn(CC)c4)nc32)cc1 [Compound A46, [3-(4-ethoxy-phenyl)-3H-[1,2,3]triazolo[4,5-d]pyrimidin-5-yl]-(1-ethyl-1H-pyrazol-4-yl)-amine]",< 300 nM,300 to 3000 nM
"CCOc1ccc(-n2nnc3cnc(Nc4cnn(CCCOC)c4)nc32)cc1 [Compound A49, [3-(4-ethoxy-phenyl)-3H-[1,2,3]triazolo[4,5-d]pyrimidin-5-yl]-[1-(3-methoxy-propyl)-1H-pyrazol-4-yl]-amine]",< 300 nM,3000 to 50000 nM
"CCOc1ccc(-n2nnc3cnc(Nc4cnn(CCOC(C)(C)C)c4)nc32)cc1 [Compound A51, [1-(2-tert-butoxy-ethyl)-1H-pyrazol-4-yl]-[3-(4-ethoxy-phenyl)-3H-[1,2,3]triazolo[4,5-d]pyrimidin-5-yl]-amine]",< 300 nM,300 to 3000 nM
"CCOc1ccc(-n2nnc3cnc(Nc4cnn(CCn5cccn5)c4)nc32)cc1 [Compound A54, [3-(4-ethoxy-phenyl)-3H-[1,2,3]triazolo[4,5-d]pyrimidin-5-yl]-[1-(2-pyrazol-1-yl-ethyl)-1H-pyrazol-4-yl]-amine]",< 300 nM,300 to 3000 nM
"COCCOc1ccc(-n2nnc3cnc(Nc4cnn(C)c4)nc32)cc1 [Compound A56, {3-[4-(2-methoxy-ethoxy)-phenyl]-3H-[1,2,3]triazolo[4,5-d]pyrimidin-5-yl}-(1-methyl-1H-pyrazol-4-yl)-amine]",< 300 nM,300 to 3000 nM
"CN1CCC(n2cc(Nc3ncc4nnn(-c5cccc(C(N)=O)c5)c4n3)cn2)CC1 [Compound A67, 3-{5-[1-(1-methyl-piperidin-4-yl)-1H-pyrazol-4-ylamino]-[1,2,3]triazolo[4,5-d]pyrimidin-3-yl}-benzamide]",< 300 nM,3000 to 50000 nM
"CCn1cc(Nc2ncc3nnn(-c4cccc(C(N)=O)c4)c3n2)cn1 [Compound A68, 3-[5-(1-ethyl-1H-pyrazol-4-ylamino)-[1,2,3]triazolo[4,5-d]pyrimidin-3-yl]-benzamide]",300 to 3000 nM,3000 to 50000 nM
"CN1CCC(n2cc(Nc3ncc4nnn(-c5ccc(C(N)=O)cc5)c4n3)cn2)CC1 [Compound A69, 4-{5-[1-(1-methyl-piperidin-4-yl)-1H-pyrazol-4-ylamino]-[1,2,3]triazolo[4,5-d]pyrimidin-3-yl}-benzamide]",< 300 nM,300 to 3000 nM
"CN1CCC(n2cc(Nc3ncc4nnn(-c5ccc6cccnc6c5)c4n3)cn2)CC1 [Compound A73, [1-(1-methyl-piperidin-4-yl)-1H-pyrazol-4-yl]-(3-quinolin-7-yl-3H-[1,2,3]triazolo[4,5-d]pyrimidin-5-yl)-amine]",< 300 nM,3000 to 50000 nM
"CN1CCC(n2cc(Nc3ncc4nnn(-c5ccc6ncccc6c5)c4n3)cn2)CC1 [Compound A75, [1-(1-methyl-piperidin-4-yl)-1H-pyrazol-4-yl]-(3-quinolin-6-yl-3H-[1,2,3]triazolo[4,5-d]pyrimidin-5-yl)-amine]",< 300 nM,300 to 3000 nM
"COc1ccc(-n2nnc3cnc(Nc4cnn(C5CCN(C)CC5)c4)nc32)nc1 [Compound A77, [3-(5-methoxy-pyridin-2-yl)-3H-[1,2,3]triazolo[4,5-d]pyrimidin-5-yl]-[1-(1-methyl-piperidin-4-yl)-1H-pyrazol-4-yl]-amine]",< 300 nM,300 to 3000 nM
"CCn1cc(-n2nnc3cnc(Nc4cnn(C5CCN(C)CC5)c4)nc32)cn1 [Compound A79, [3-(1-ethyl-1H-pyrazol-4-yl)-3H-[1,2,3]triazolo[4,5-d]pyrimidin-5-yl]-[1-(1-methyl-piperidin-4-yl)-1H-pyrazol-4-yl]-amine]",< 300 nM,300 to 3000 nM
"c1cnc2ccc(-n3nnc4cnc(Nc5cnn(C6CCOCC6)c5)nc43)cc2c1 [Compound A82, (3-quinolin-6-yl-3H-[1,2,3]triazolo[4,5-d]pyrimidin-5-yl)-[1-(tetrahydro-pyran-4-yl)-1H-pyrazol-4-yl]-amine]",300 to 3000 nM,300 to 3000 nM
"CCn1cc(-n2nnc3cnc(Nc4cnn(C5CCOCC5)c4)nc32)cn1 [Compound A83, [3-(1-ethyl-1H-pyrazol-4-yl)-3H-[1,2,3]triazolo[4.5-d]pyrimidin-5-yl]-[1-(tetrahydro-pyran-4-yl)-1H-pyrazol-4-yl]-amine]",< 300 nM,3000 to 50000 nM
"CCn1cc(Nc2ncc3nnn(-c4ccc5c(c4)NC(=O)C5(C)C)c3n2)cn1 [Compound A84, 6-[5-(1-ethyl-1H-pyrazol-4-ylamino)-[1,2,3]triazolo[4,5-d]pyrimidin-3-yl]-3,3-dimethyl-1,3-dihydro-indol-2-one]",< 300 nM,300 to 3000 nM
"CC1(C)C(=O)Nc2cc(-n3nnc4cnc(Nc5cnn(C6CCOCC6)c5)nc43)ccc21 [Compound A85, 3,3-dimethyl-6-{5-[1-(tetrahydro-pyran-4-yl)-1H-pyrazol-4-ylamino]-[1,2,3]triazolo[4,5-d]pyrimidin-3-yl}-1,3-dihydro-indol-2-one]",< 300 nM,300 to 3000 nM
"COCCOc1ccc(-n2nnc3cnc(Nc4cnn(C5CCOCC5)c4)nc32)cc1 [Compound A87, {3-[4-(2-methoxy-ethoxy)-phenyl]-3H-[1,2.3]triazolo[4,5-d]pyrimidin-5-yl}-[1-(tetrahydro-pyran-4-yl)-1H-pyrazol-4-yl]-amine]",< 300 nM,300 to 3000 nM
"CCn1cc(Nc2ncc3nnn(-c4ccc5[nH]ncc5c4)c3n2)cn1 [Compound A91, (1-ethyl-1H-pyrazol-4-yl)-[3-(1H-indazol-5-yl)-3H-[1,2,3]triazolo[4,5-d]pyrimidin-5-yl]-amine]",< 300 nM,300 to 3000 nM
